{"source": "paper PMC9540877", "about": "“Clinical Formulation Bridging of Gefapixant, a P2X3‐Receptor Antagonist, for the Treatment of Chronic Cough” (Clinical Pharmacology in Drug Development, 2022)", "key": {"[1]": {"system": "organic anion transporter P1B1", "parameters": "method as in PMID 34821075", "details": "twice-daily gefapixant 45 mg; cited from earlier work"}, "[2]": {"parameters": "method as in PMID 35248186", "details": "patients with RCC or UCC, COUGH-1 and COUGH-2; cited from earlier work"}, "MATE1/2K": {"system": "MATE1/2K", "details": "cited from earlier work"}, "[3]": {"details": "cited from earlier work"}, "[4]": {"experiment": "Safety and tolerability in studies 1 to 4", "format": "in vivo, human", "method": "Safety and tolerability for all studies were determined using clinical assessments, including physical examinations, vital signs, standard laboratory tests, 12‐lead electrocardiograms, and adverse events (AEs)."}}}
{"molecule": "COc1cc(C(C)C)c(Oc2cnc(N)nc2N)cc1S(N)(=O)=O", "note": "[gefapixant, Gefapixant]", "values": [{"measurement": "effect on the pharmacokinetics of pitavastatin", "setting": "[1]", "result": "no effect"}, {"measurement": "24-hour cough frequency", "setting": "[2]", "result": "significantly reduced"}, {"measurement": "effect of inhibiting MATE1/2K via pyrimethamine on gefapixant exposure", "setting": "MATE1/2K", "result": "does not meaningfully increase"}, {"measurement": "excreted metabolites, share of the gefapixant dose", "setting": "[3]", "result": 14, "unit": "%"}, {"measurement": "terminal half-life (t1/2)", "setting": "[3]", "result": "≈ 7 hours"}, {"measurement": "serious AEs", "setting": "[4]; all 4 studies", "result": "no serious AEs"}, {"measurement": "severity of all AEs", "setting": "[4]; all 4 studies", "result": "mild or moderate"}, {"measurement": "most commonly reported AEs", "setting": "[4]; studies 1 and 2", "result": "taste related"}, {"measurement": "most common AE", "setting": "[4]; studies 3 and 4", "result": "headache"}]}
